# Measurements published in ChEMBL document CHEMBL3885881, “DrugMatrix”.
# Organism: Rattus norvegicus
# Assay: DrugMatrix - Regimen: Daily Repeat
# Format: toxicity, organism-based, Sprague-Dawley
# Set-up: regimen Daily Repeat, gender Male, age 6-8 weeks
# Conditions: in vivo, po, route oral GAVAGE, vehicle 100 % WATER; for ABSOLUTE BASOPHIL / ABSOLUTE EOSINOPHIL / ABSOLUTE LYMPHOCYTE / ABSOLUTE MONOCYTE / ABSOLUTE SEGMENTED NEUTROPHIL / BASOPHIL / EOSINOPHIL / ERYTHROCYTE COUNT / HEMATOCRIT / HEMOGLOBIN / LEUKOCYTE COUNT / LYMPHOCYTE / MEAN CORPUSCULAR HEMOGLOBIN / MEAN CORPUSCULAR HEMOGLOBIN CONCENTRATION / MEAN CORPUSCULAR VOLUME / MONOCYTE / NEUTROPHIL / NUCLEATED RED BLOOD CELLS / PLATELET COUNT: tissue Blood; for ALANINE AMINOTRANSFERASE / ALBUMIN / ALKALINE PHOSPHATASE / ASPARTATE AMINOTRANSFERASE / BLOOD UREA NITROGEN / CARBON DIOXIDE / CHLORIDE / CHOLESTEROL / CREATINE PHOSPHOKINASE / CREATININE / GLUCOSE / LACTATE DEHYDROGENASE / LIPASE / PHOSPHORUS / POTASSIUM / SODIUM / TOTAL BILIRUBIN / TOTAL PROTEIN / URIC ACID: tissue Plasma
# [1] = 160 mg/kg, 120 h, dose level Low, time 5 day
# [2] = 1000 mg/kg, 72 h, dose level High, time 3 day
# [3] = 1000 mg/kg, 120 h, dose level High, time 5 day
smiles,measurement,setting,value
N[C@@H](Cc1ccc(O)c(O)c1)C(=O)O [LEVODOPA],ABSOLUTE BASOPHIL,[1],0 CELLS/uL
same,ABSOLUTE EOSINOPHIL,[1],0 CELLS/uL
same,ABSOLUTE LYMPHOCYTE,[1],7319.33 CELLS/uL
same,ABSOLUTE MONOCYTE,[1],56 CELLS/uL
same,ABSOLUTE SEGMENTED NEUTROPHIL,[1],1058 CELLS/uL
same,BASOPHIL,[1],0%
same,EOSINOPHIL,[1],0%
same,ERYTHROCYTE COUNT,[1],5.23 x10E6/uL
same,HEMATOCRIT,[1],34.27%
same,HEMOGLOBIN,[1],13 G/DL
same,LEUKOCYTE COUNT,[1],8.43 x10E3/uL
same,LYMPHOCYTE,[1],87.67%
same,MEAN CORPUSCULAR HEMOGLOBIN,[1],25.13 pg
same,MEAN CORPUSCULAR HEMOGLOBIN CONCENTRATION,[1],38 G/DL
same,MEAN CORPUSCULAR VOLUME,[1],66.13 fL
same,MONOCYTE,[1],0.67%
same,NEUTROPHIL,[1],11.67%
same,NUCLEATED RED BLOOD CELLS,[1],0 /100WBC
same,PLATELET COUNT,[1],1259.67 x10E3/uL
same,ALANINE AMINOTRANSFERASE,[1],48 u/L
same,ALBUMIN,[1],4.1 G/DL
same,ALKALINE PHOSPHATASE,[1],360.33 u/L
same,ASPARTATE AMINOTRANSFERASE,[1],84.33 u/L
same,BLOOD UREA NITROGEN,[1],16 mg/dL
same,CARBON DIOXIDE,[1],30.33 mmol/L
same,CHLORIDE,[1],103 MEQ/L
same,CHOLESTEROL,[1],58 mg/dL
same,CREATINE PHOSPHOKINASE,[1],286.33 u/L
same,CREATININE,[1],0.17 mg/dL
same,GLUCOSE,[1],137 mg/dL
same,LACTATE DEHYDROGENASE,[1],128 u/L
same,LIPASE,[1],10 u/L
same,PHOSPHORUS,[1],10.63 mg/dL
same,POTASSIUM,[1],6.08 MEQ/L
same,SODIUM,[1],145.37 MEQ/L
same,TOTAL BILIRUBIN,[1],0.17 mg/dL
same,TOTAL PROTEIN,[1],5.97 G/DL
same,URIC ACID,[1],1.03 mg/dL
same,ABSOLUTE BASOPHIL,[2],0 CELLS/uL
same,ABSOLUTE EOSINOPHIL,[2],0 CELLS/uL
same,ABSOLUTE LYMPHOCYTE,[2],14031 CELLS/uL
same,ABSOLUTE MONOCYTE,[2],188.67 CELLS/uL
same,ABSOLUTE SEGMENTED NEUTROPHIL,[2],780.33 CELLS/uL
same,BASOPHIL,[2],0%
same,EOSINOPHIL,[2],0%
same,ERYTHROCYTE COUNT,[2],5.75 x10E6/uL
same,HEMATOCRIT,[2],36.23%
same,HEMOGLOBIN,[2],13.9 G/DL
same,LEUKOCYTE COUNT,[2],15 x10E3/uL
same,LYMPHOCYTE,[2],93.33%
same,MEAN CORPUSCULAR HEMOGLOBIN,[2],24.2 pg
same,MEAN CORPUSCULAR HEMOGLOBIN CONCENTRATION,[2],38.37 G/DL
same,MEAN CORPUSCULAR VOLUME,[2],63 fL
same,MONOCYTE,[2],1%
same,NEUTROPHIL,[2],5.67%
same,NUCLEATED RED BLOOD CELLS,[2],0.33 /100WBC
same,PLATELET COUNT,[2],1320 x10E3/uL
same,ALANINE AMINOTRANSFERASE,[2],57.33 u/L
same,ALBUMIN,[2],4.13 G/DL
same,ALKALINE PHOSPHATASE,[2],415 u/L
same,ASPARTATE AMINOTRANSFERASE,[2],88 u/L
same,BLOOD UREA NITROGEN,[2],14 mg/dL
same,CARBON DIOXIDE,[2],32 mmol/L
same,CHLORIDE,[2],101.67 MEQ/L
same,CHOLESTEROL,[2],54.33 mg/dL
same,CREATINE PHOSPHOKINASE,[2],336.67 u/L
same,CREATININE,[2],0.2 mg/dL
same,GLUCOSE,[2],120 mg/dL
same,LACTATE DEHYDROGENASE,[2],167.33 u/L
same,LIPASE,[2],10.33 u/L
same,PHOSPHORUS,[2],11 mg/dL
same,POTASSIUM,[2],6.09 MEQ/L
same,SODIUM,[2],145.53 MEQ/L
same,TOTAL BILIRUBIN,[2],0.17 mg/dL
same,TOTAL PROTEIN,[2],6.07 G/DL
same,URIC ACID,[2],0.8 mg/dL
same,ABSOLUTE BASOPHIL,[3],0 CELLS/uL
same,ABSOLUTE EOSINOPHIL,[3],0 CELLS/uL
same,ABSOLUTE LYMPHOCYTE,[3],11289.33 CELLS/uL
same,ABSOLUTE MONOCYTE,[3],104.67 CELLS/uL
same,ABSOLUTE SEGMENTED NEUTROPHIL,[3],539.33 CELLS/uL
same,BASOPHIL,[3],0%
same,EOSINOPHIL,[3],0%
same,ERYTHROCYTE COUNT,[3],6.06 x10E6/uL
same,HEMATOCRIT,[3],37.27%
same,HEMOGLOBIN,[3],14.47 G/DL
same,LEUKOCYTE COUNT,[3],11.93 x10E3/uL
same,LYMPHOCYTE,[3],95.33%
same,MEAN CORPUSCULAR HEMOGLOBIN,[3],23.87 pg
same,MEAN CORPUSCULAR HEMOGLOBIN CONCENTRATION,[3],38.83 G/DL
same,MEAN CORPUSCULAR VOLUME,[3],61.43 fL
same,MONOCYTE,[3],0.67%
same,NEUTROPHIL,[3],4%
same,NUCLEATED RED BLOOD CELLS,[3],0 /100WBC
same,PLATELET COUNT,[3],1582 x10E3/uL
same,ALANINE AMINOTRANSFERASE,[3],46.33 u/L
same,ALBUMIN,[3],4.17 G/DL
same,ALKALINE PHOSPHATASE,[3],308.33 u/L
same,ASPARTATE AMINOTRANSFERASE,[3],68 u/L
same,BLOOD UREA NITROGEN,[3],20.33 mg/dL
same,CARBON DIOXIDE,[3],33.67 mmol/L
same,CHLORIDE,[3],101.67 MEQ/L
same,CHOLESTEROL,[3],59.33 mg/dL
same,CREATINE PHOSPHOKINASE,[3],271.67 u/L
same,CREATININE,[3],0.21 mg/dL
same,GLUCOSE,[3],124 mg/dL
same,LACTATE DEHYDROGENASE,[3],116.67 u/L
same,LIPASE,[3],10 u/L
same,PHOSPHORUS,[3],10.37 mg/dL
same,POTASSIUM,[3],6.24 MEQ/L
same,SODIUM,[3],147.43 MEQ/L
same,TOTAL BILIRUBIN,[3],0.17 mg/dL
same,TOTAL PROTEIN,[3],6.13 G/DL
same,URIC ACID,[3],1.2 mg/dL
